Laboratory results from US20200009085A1, “Methods For Treating Ovarian Cancer” (RADIUS HEALTH, INC., priority 2016, published 2020).
Entries after “also recorded” stand apart in the source; their conditions may differ. Counter-ions that a name gives are not always drawn.

Key:
[1] = tested on: OV-10-0050 ovarian cancer tumor; test: In vivo xenograft PDX model (OV-10-0050 ovarian patient derived xenograft)
Description: RAD1901 used in the examples below was (6R)-6-(2-(N-(4-(2-(ethylamino)ethyl)benzyl)-N-ethylamino)-4-methoxyphenyl)-5,6,7,8-tetrahydronaphthalen-2-ol dihydrochloride, manufactured by IRIX Pharmaceuticals, Inc. (Florence, S.C.). RAD1901 was stored as a dry powder, formulated for use as a homogenous suspension in 0.5% (w/v) methylcellulose in deionized water, and for animal models was administered p.o.
All mice were housed in pathogen-free housing in individually ventilated cages with sterilized and dust-free bedding cobs, access to sterilized food and water ad libitum, under a light dark cycle (12-14 hour circadian cycle of artificial light) and controlled room temperature and humidity.
The PDX shown in FIG. 1 was the OV-10-0050 ovarian cancer tumor, derived from an ovarian adenocarcinoma from a person. The tumor was grade 3 and positive for cytokeratin indicating an ovarian epithelial type. The tumor also stained positive for ER and an ER target gene (progesterone receptor). The OV-10-0050 PDX model was established from viable human tumor tissue that had been serially passaged in animals (female Balb/c nude mice) a limited number of times to maintain tumor heterogeneity. […]
Tumor sizes were measured twice per week in two dimensions using a caliper, and the volume was expressed in mm^3 using the formula: V=0.5 a×b^2 where a and b were the long and short diameters of the tumor, respectively. […]
TGI was calculated for each group using the formula: TGI (%)=[1−(Ti−T0)/(Vi−V0)]×100; Ti is the average tumor volume of a treatment group on a given day, T0 is the average tumor volume of the treatment group on the day of grouping, Vi is the average tumor volume of the vehicle control group on a given day with Ti, and V0 is the average tumor volume of the vehicle group on the day of grouping. […]
A one-way ANOVA was performed to compare tumor volume among RAD1901-treted groups compared to the vehicle-treated group on day 32 of treatment. All data were analyzed using Graphpad Prism. p<0.05 was considered to be statistically significant.

[2] = tested on: breast cancer xenograft models; settings: regardless of ESR1 mutation status and prior endocrine therapy; cited from earlier work
ERα = biological target: T1, ERα (Homo sapiens, UniProt P03372); settings: ERα versus estrogen receptor beta (ERβ); cited from earlier work
T1 sequence (P03372 1-595): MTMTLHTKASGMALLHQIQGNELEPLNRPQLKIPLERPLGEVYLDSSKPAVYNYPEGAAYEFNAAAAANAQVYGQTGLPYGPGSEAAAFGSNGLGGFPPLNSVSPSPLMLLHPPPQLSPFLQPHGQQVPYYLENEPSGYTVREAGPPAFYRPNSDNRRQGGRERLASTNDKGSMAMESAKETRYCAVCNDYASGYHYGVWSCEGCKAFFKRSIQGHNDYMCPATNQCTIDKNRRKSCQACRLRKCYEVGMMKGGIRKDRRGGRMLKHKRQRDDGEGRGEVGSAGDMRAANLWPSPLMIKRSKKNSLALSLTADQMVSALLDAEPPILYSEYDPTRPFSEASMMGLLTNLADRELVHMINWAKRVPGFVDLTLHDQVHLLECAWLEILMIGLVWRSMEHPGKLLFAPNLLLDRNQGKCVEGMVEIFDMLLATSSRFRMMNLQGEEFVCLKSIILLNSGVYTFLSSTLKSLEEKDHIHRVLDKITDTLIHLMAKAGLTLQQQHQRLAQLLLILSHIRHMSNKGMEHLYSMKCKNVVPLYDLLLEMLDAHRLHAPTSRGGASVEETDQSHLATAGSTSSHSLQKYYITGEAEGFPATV

CCNCCc1ccc(CN(CC)c2cc(OC)ccc2[C@@H]2CCc3cc(O)ccc3C2)cc1 [RAD1901, (6R)-6-(2-(N-(4-(2-(ethylamino)ethyl)benzyl)-N-ethylamino)-4-methoxyphenyl)-5,6,7,8-tetrahydronaphthalen-2-ol dihydrochloride]
tolerability (reason the group was taken down) ([1]; 60 mg/kg p.o. q.d., Day 32, tumor-bearing Balb/c nude mice): weakness and heavy body weight loss | tumor regression ([1]; OV-10-0050 PDX, 30 mg/kg and 60 mg/kg p.o. daily, individual tumor sizes on Day 32, FIG. 2, dihydrochloride): drive tumor regression; also recorded: tumor regressions in some animals | tumor growth inhibition (TGI) ([1]; OV-10-0050 PDX, RAD1901 30 or 60 mg/kg p.o. q.d., day 32, approximately equal activity at both dose groups, FIG. 1): about 80% | tumor growth inhibition and/or regression [2]: inhibit tumor growth and/or drive tumor regression | binding preference ERα versus ERβ (ERα): preferentially bind ERα
